# Source: publication PMC11242993, “Evaluation of the Therapeutic Potential of Sulfonyl Urea Derivatives as Soluble Epoxide Hydrolase (sEH) Inhibitors” (Molecules, 2024)
# How the values were obtained:
# C57BL/6J male mice = assay: Hot plate model; assay type: in vivo; conditions: 10 mg/kg i.p.
# Method: Thermal nociception in the hot plate test was assessed with a commercially available apparatus (Hotplate Analgesia Meter, Columbus Instruments) consisting of a metal plate to a constant temperature of 55.0 ± 0.1 °C. Mice were put into the hot plate testing instrument to adapt for at least 15 min. The device was connected to a manually operated timer that recorded the amount of time the mouse spent on the heated surface before showing signs of nociception (e.g., licked its paws or jumped), the cut-off time was 60 s. The baseline (basic pain threshold, the response was more than 25 s, and the jumping mice were excluded.) was calculated as the mean of three readings recorded before testing at intervals of 15 min. The time course of latency was then determined at 15, 30, 45, 60, 90, and 120 min after compound treatment. Data were analyzed as time-course curves of the percentage of maximum effect MPE% = (post drug latency − baseline latency) × 100/(cut-off time − baseline latency). C57BL/6J male mice obtained from The Jackson Laboratory (Bar Harbor, ME, USA) weighing 28 g were used for the hot plate test. Animal procedures were conducted following the rules and regulations of the Institutional Animal Care and Use Committee of the National Institute on Alcohol Abuse and Alcoholism (NIAAA) under the protocols of LPS-GK1.
# mice = assay: LPS-induced acute lung injury (ALI) model; assay type: in vivo; conditions: 10 mg/kg i.p.
# Method: LPS-induced acute lung injury induced by a single oropharyngeal instillation of lipopolysaccharide (LPS) (50 µg/mouse) in 16-week-old mice as described previously. Briefly, LPS (L4391, MilliporeSigma, Burlington, MA, USA) was dissolved in sterile saline and administered at 50 µg/mouse in 40 µL after anesthesia induced by ketamine/xylazine. The mice were studied 24 h after LPS or saline instillation.
# BALF was collected from anesthetized mice by lavaging lungs two times with 0.8 mL Hanks’ balanced salt solution without calcium and magnesium (HBSS) (Sigma-Aldrich, St. Louis, MI, USA). Supernatants were collected as BALF for further analyses.
# The number of cells in the BALF was estimated using an automated cell counter, the Countess II FL cell counter (Thermo Fisher Scientific Inc., Waltham, MA, USA).
# Albumin levels were measured by the Mouse Albumin Elisa Assay kit (Cat # E99-134), which was obtained from Bethyl Laboratories. BALF samples from the LPS group were diluted at a 1:2000 ratio.
# Total protein in BALF samples was measured using the Pierce BCA protein assay kit (Cat # 23225) as detailed in the product manual (Thermo Fisher Scientific).
# The right middle lobe was immediately placed in an RNA later solution and stored at −80 °C until the RNA extraction procedure. RNA extraction was performed using RNeasy Mini Kits from Qiagen (Valencia, CA, USA). One microgram of total RNA was reverse transcribed to cDNA using an iScript cDNA synthesis kit (Bio-Rad, Hercules, CA, USA). Expression of the target genes was quantified using gene-specific primers and PowerSYBRGreen master mix (Thermo Fisher Scientific) in a QuantStudio 3 Real-Time PCR instrument (Thermo Fisher Scientific). Predesigned mouse IL-6 (QT00098875), TNF-α (QT00104006), IL-1β (QT01048355), CXCL1 (QT00115647), CCL2 (QT00167832), CXCL3 (QT00151599) and CXCL9 (QT00097062) primers were purchased from Qiagen (Valencia, CA, USA). Fold changes in gene expression relative to the housekeeping gene TATA-Box Binding Protein (Tbp, QT00198443) were determined. Gene expression values were calculated based on the […] method.
# human recombinant sEH = molecular target: T1, human recombinant sEH (Homo sapiens, UniProt P34913); assay: Fluorescence-based sEH activity assay (PHOME substrate), human enzyme; assay type: biochemical; conditions: for IC50: dose-dependent assay, read-out: Human sEH Inhibition IC50
# T1 construct: purchased Cayman Chemical 10011671
# T1 sequence (P34913 1-555): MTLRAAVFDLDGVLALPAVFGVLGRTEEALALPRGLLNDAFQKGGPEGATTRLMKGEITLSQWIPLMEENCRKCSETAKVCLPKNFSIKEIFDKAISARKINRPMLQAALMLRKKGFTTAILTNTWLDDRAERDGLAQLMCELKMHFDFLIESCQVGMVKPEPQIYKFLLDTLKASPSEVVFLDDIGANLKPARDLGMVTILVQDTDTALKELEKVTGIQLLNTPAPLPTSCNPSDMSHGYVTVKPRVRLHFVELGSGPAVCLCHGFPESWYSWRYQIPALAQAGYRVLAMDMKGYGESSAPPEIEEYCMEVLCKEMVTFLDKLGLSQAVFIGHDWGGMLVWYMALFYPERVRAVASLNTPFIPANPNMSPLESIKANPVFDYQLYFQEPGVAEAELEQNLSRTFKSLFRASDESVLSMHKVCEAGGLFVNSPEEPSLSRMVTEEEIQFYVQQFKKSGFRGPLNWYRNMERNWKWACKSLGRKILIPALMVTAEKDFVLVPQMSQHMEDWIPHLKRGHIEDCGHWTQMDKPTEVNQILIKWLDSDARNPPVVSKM
# Method: A fluorescence-based sEH activity assay provided a convenient method for screening human epoxide hydrolase inhibitors. The assay utilized (3-Phenyl-oxiranyl)-acetic acid cyano-(6-methoxy-naphthalen-2-yl)-methyl ester (PHOME) as a substrate. […] The inhibitory function of the compounds on sEH activity was tested as detailed in the product manual from Cayman Chemical. Briefly, 3 mL sEH assay buffer (10×) was diluted with 27 mL HPLC-grade water. This final assay buffer, 25 mM bis-tris (pH 7.0), was used in the assay and for the dilution of the soluble epoxide hydrolase (sEH) enzyme. Amounts of 12 μL each of human and mouse recombinant sEH were thawed on ice. Prior to assaying, 588 μL cold assay buffer was added directly to the enzyme vial. An amount of 190 μL assay buffer and 5 μL solvent (40% DMSO in assay buffer) were added to the background wells. In the 100% initial activity wells, 185 μL assay buffer, 5 μL sEH, and 5 μL solvent were added. In inhibitor wells, 185 μL assay buffer, 5 μL solution of the synthesized compounds, and 5 μL of recombinant enzyme solution were added.
# (§1) Average fluorescence (AF) of the background wells and 100% initial activity in the wells and of each of the inhibitors were determined. The background AF was subtracted from the 100% initial activity and inhibitor AFs. The % sEH activity is calculated as (inhbitited AF/% 100 initial activity) × 100.
# (§2) Multiple concentrations of the inhibitors were tested followed by plotting of the percent activity as a function of inhibitor concentration to determine the IC50 values.
# mouse recombinant sEH = molecular target: T2, mouse recombinant sEH (Mus musculus, UniProt P34914); assay: Fluorescence-based sEH activity assay (PHOME substrate), mouse enzyme; assay type: biochemical; conditions: dose-dependent assay; read-out: Mouse sEH Inhibition IC50
# T2 sequence (P34914 1-554): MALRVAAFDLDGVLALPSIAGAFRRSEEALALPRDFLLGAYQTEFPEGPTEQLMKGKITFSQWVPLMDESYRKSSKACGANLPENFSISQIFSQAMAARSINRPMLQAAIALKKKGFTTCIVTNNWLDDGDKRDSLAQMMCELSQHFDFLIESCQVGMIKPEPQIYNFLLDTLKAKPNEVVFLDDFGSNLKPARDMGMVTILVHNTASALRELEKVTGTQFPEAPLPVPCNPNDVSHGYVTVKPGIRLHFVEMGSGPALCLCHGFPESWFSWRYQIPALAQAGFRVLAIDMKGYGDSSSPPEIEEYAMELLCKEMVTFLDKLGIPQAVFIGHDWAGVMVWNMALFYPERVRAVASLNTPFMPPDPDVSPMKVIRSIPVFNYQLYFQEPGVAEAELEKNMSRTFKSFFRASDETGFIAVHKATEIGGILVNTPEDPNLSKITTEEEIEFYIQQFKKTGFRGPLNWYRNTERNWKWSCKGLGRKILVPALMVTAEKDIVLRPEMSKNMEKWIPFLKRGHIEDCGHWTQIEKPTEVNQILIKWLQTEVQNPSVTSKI
# Method: A fluorescence-based sEH activity assay provided a convenient method for screening human epoxide hydrolase inhibitors. The assay utilized (3-Phenyl-oxiranyl)-acetic acid cyano-(6-methoxy-naphthalen-2-yl)-methyl ester (PHOME) as a substrate. […] The inhibitory function of the compounds on sEH activity was tested as detailed in the product manual from Cayman Chemical. Briefly, 3 mL sEH assay buffer (10×) was diluted with 27 mL HPLC-grade water. This final assay buffer, 25 mM bis-tris (pH 7.0), was used in the assay and for the dilution of the soluble epoxide hydrolase (sEH) enzyme. Amounts of 12 μL each of human and mouse recombinant sEH were thawed on ice. Prior to assaying, 588 μL cold assay buffer was added directly to the enzyme vial. An amount of 190 μL assay buffer and 5 μL solvent (40% DMSO in assay buffer) were added to the background wells. In the 100% initial activity wells, 185 μL assay buffer, 5 μL sEH, and 5 μL solvent were added. In inhibitor wells, 185 μL assay buffer, 5 μL solution of the synthesized compounds, and 5 μL of recombinant enzyme solution were added. To start the reaction, 5 μL of PHOME was added to each well at a final concentration of 0.25 mM. The microwell plate was shaken carefully for 10 s and covered with a plate cover.
# as §1, §2
# [1] = In vivo pharmacokinetic experiment; set-up: species or system C57BL/6J mice; conditions: male, C57BL/6J, mouse, serum, other: oral and intraperitoneal; mice, oral and intraperitoneal administration, 10 mg/kg; read-out: plasma half-life
# Method: Twenty 8–9-week-old male C57BL/6J mice were taken for the in vivo pharmacokinetic experiment. They were divided into four groups, each containing five mice. Each group was used for either oral or intraperitoneal administration of compound 4f or 15a. Both the compounds were reconstituted in 5% DMSO, 5% TWEEN 80 in saline water (pH = 7.4). The mice were orally and intraperitoneally administered compounds at 10 mg/kg dose. Blood samples were collected at 0, 0.5, 1, 2, 4, 6, and 24 h after administration of the compound, and serum was isolated with the compound. For the pharmacokinetic study, 10 μL of serum samples from mice were extracted with a 2:1 mixture of LC/MS-grade chloroform and methanol, followed by intermittent vortexing, and then centrifuged at 4000 rpm for 10 min at 4 °C. Thereafter, the supernatant was collected and analyzed by LC−MS/MS to measure the concentrations of compounds 4f and 15a in the serum.
SMILES,Human sEH % Inhibition (human recombinant sEH),IC50 (human recombinant sEH),IC50 (mouse recombinant sEH),also measured
"O=C(O)CCCCCCCCCCCNC(=O)NC12CC3CC(CC(C3)C1)C2 [AUDA, 12-(3-adamantan-1-ylureido)dodecanoic acid, reference compound]",–,–,–,"analgesic effect in hot plate assay (C57BL/6J male mice): none of the sEH inhibitors, including AUDA, showed any analgesic effect; effect on LPS-induced increase in total protein in BALF (mice): neither AUDA nor novel sEH inhibitors’ (4f and 4l) effect; number of cells in bronchoalveolar lavage (BAL) (mice): similarly attenuated the number of cells in BAL; LPS-induced lung gene expression of interleukin 1B (IL-1B) (mice; qPCR): attenuated; LPS-induced lung gene expression of interleukin 6 (IL-6) (mice; qPCR): attenuated; lung gene expression of CXCL1 (mice; qPCR): similarly attenuated"
O=C(NC12CC3CC(CC(C3)C1)C2)NS(=O)(=O)c1ccccc1 [Compound 4a],93.61%,100 nM,> 1000 nM,–
"Cc1ccc(S(=O)(=O)NC(=O)NC23CC4CC(CC(C4)C2)C3)cc1 [Compound 4b, N-((adamantan-1-yl)carbamoyl)-4-methylbenzenesulfonamide]",91.78%,16.3 nM,850 nM,–
COc1ccc(S(=O)(=O)NC(=O)NC23CC4CC(CC(C4)C2)C3)cc1 [Compound 4e],95.39%,2.94 nM,> 1000 nM,–
O=C(NC12CC3CC(CC(C3)C1)C2)NS(=O)(=O)c1ccc(F)cc1 [Compound 4j],85.26%,120 nM,> 1000 nM,–
O=C(NC12CC3CC(CC(C3)C1)C2)NS(=O)(=O)c1ccc(Cl)cc1 [Compound 4k],96.47%,2 nM,> 1000 nM,–
"O=S(=O)(NC(=S)NC12CC3CC(CC(C3)C1)C2)c1ccccc1 [Compound 6a, N-((adamantan-1-yl)carbamothioyl)benzenesulfonamide]",84.56%,130 nM,> 1000 nM,–
"O=S(=O)(NC(=S)NC12CC3CC(CC(C3)C1)C2)c1ccc(OC(F)(F)F)cc1 [Compound 6d, N-((adamantan-1-yl)carbamothioyl)-4-(trifluoromethoxy)benzenesulfonamide]",96.24%,4.66 nM,110 nM,–
"CC12CC3CC(C)(C1)CC(NC(=O)NS(=O)(=O)c1ccc(OC(F)(F)F)cc1)(C3)C2 [Compound 15a, N-((3,5-dimethyladamantan-1-yl)carbamoyl)-4-(trifluoromethoxy)benzenesulfonamide]",92.06%,3.87 nM,22 nM,half-life [1]: < 2 h
"CC12CC3CC(C)(C1)CC(NC(=O)NS(=O)(=O)c1ccc4ccccc4c1)(C3)C2 [Compound 15b, N-((3,5-dimethyladamantan-1-yl)carbamoyl)naphthalene-2-sulfonamide]",47.05%,950 nM,> 1000 nM,–
"O=C(NC1CCN(C(=O)NC23CC4CC(CC(C4)C2)C3)CC1)NS(=O)(=O)c1ccc(OC(F)(F)F)cc1 [Compound 18, N-(1-((adamantan-1-yl)carbamoyl)piperidin-4-yl)-N′-((4-(trifluoromethoxy)phenyl)sulfonyl)carbamimidic acid]",60.80%,38.7 nM,710 nM,–
